Laboratory results from patent US12077503B2, “Substituted cyclic amides and their use as herbicides” (FMC CORPORATION, priority 2015, dated 2024).

Legend:
Test in all cases: Test C preemergence
Type in all cases: in vivo
[1] = tested on: ryegrass, Italian (Italian ryegrass, Lolium multiflorum); conditions: for Plant response rating, Ryegrass, Italian: scale 0 to 100, 0 no effect, 100 complete control
Outline: (§1)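 Visual rating, 0–100 scale (0 = no effect, 100 = complete control) versus controls, 13–15 d after treatment. Compounds in non-phytotoxic solvent plus surfactant; applied preemergence to seeds in loam/sand soil or postemergence to 1- to 4-leaf plants (2–18 cm) in peat/vermiculite medium; greenhouse-held.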

[2] = tested on: johnsongrass (Sorghum halepense); conditions: for Plant response rating, Johnsongrass: scale 0 to 100, 0 no effect, 100 complete control
Outline: as §1

[3] = tested on: crabgrass, large (large crabgrass, Digitaria sanguinalis); conditions: for Plant response rating, Crabgrass, Large: scale 0 to 100, 0 no effect, 100 complete control
Outline: as §1

[4] = tested on: nutsedge, yellow (yellow nutsedge, Cyperus esculentus); conditions: for Plant response rating, Nutsedge, Yellow: scale 0 to 100, 0 no effect, 100 complete control
Outline: as §1

corn (Zea mays) = conditions: for Plant response rating, Corn: scale 0 to 100, 0 no effect, 100 complete control
Outline: as §1

[5] = tested on: waterhemp (common waterhemp, Amaranthus rudis); conditions: for Plant response rating, Waterhemp: scale 0 to 100, 0 no effect, 100 complete control
Outline: as §1

[6] = tested on: barnyardgrass (Echinochloa crus-galli); conditions: for Plant response rating, Barnyardgrass: scale 0 to 100, 0 no effect, 100 complete control
Outline: as §1

[7] = tested on: wheat (winter wheat, Triticum aestivum); conditions: for Plant response rating, Wheat: scale 0 to 100, 0 no effect, 100 complete control
Outline: as §1

soybean (Glycine max) = conditions: for Plant response rating, Soybean: scale 0 to 100, 0 no effect, 100 complete control
Outline: as §1

[8] = tested on: morningglory (Ipomoea coccinea); conditions: for Plant response rating, Morningglory: scale 0 to 100, 0 no effect, 100 complete control
Outline: as §1

[9] = tested on: ragweed (common ragweed, Ambrosia elatior); conditions: for Plant response rating, Ragweed: scale 0 to 100, 0 no effect, 100 complete control
Outline: as §1

[10] = tested on: oilseed rape (Brassica napus); conditions: for Plant response rating, Oilseed Rape: scale 0 to 100, 0 no effect, 100 complete control
Outline: as §1

[11] = tested on: blackgrass (Alopecurus myosuroides); conditions: for Plant response rating, Blackgrass: scale 0 to 100, 0 no effect, 100 complete control
Outline: as §1

[12] = tested on: velvetleaf (Abutilon theophrasti); conditions: for Plant response rating, Velvetleaf: scale 0 to 100, 0 no effect, 100 complete control
Outline: as §1

[13] = tested on: foxtail, giant (giant foxtail, Setaria faberii); conditions: for Plant response rating, Foxtail, Giant: scale 0 to 100, 0 no effect, 100 complete control
Outline: as §1

[14] = tested on: Galium (catchweed bedstraw, Galium aparine); conditions: for Plant response rating, Galium: scale 0 to 100, 0 no effect, 100 complete control
Outline: as §1

[15] = tested on: lambsquarters (Chenopodium album); conditions: for Plant response rating, Lambsquarters: scale 0 to 100, 0 no effect, 100 complete control
Outline: as §1

[16] = 31 g ai/ha, 0 is no effect, 100 is complete control

## O=C1NCC(c2cc(F)cc(Cl)c2)C1C(=O)Nc1cccc(F)c1F (centres unmarked) [Compound 492]
[1]; [16]
  Plant response rating (scale of 0 to 100), Ryegrass, Italian: 0
[1]; 62 g ai/ha
  Plant response rating, Ryegrass, Italian: 5
[1]; 125 g ai/ha
  Plant response rating, Ryegrass, Italian: 25
[1]; 250 g ai/ha
  Plant response rating, Ryegrass, Italian: 20
[2]; [16]
  Plant response rating (scale of 0 to 100), Johnsongrass: 20
[2]; 62 g ai/ha
  Plant response rating, Johnsongrass: 55
[2]; 125 g ai/ha
  Plant response rating, Johnsongrass: 80
[2]; 250 g ai/ha
  Plant response rating, Johnsongrass: 90
[3]; [16]
  Plant response rating (scale of 0 to 100), Crabgrass, Large: 90
[3]; 62 g ai/ha
  Plant response rating, Crabgrass, Large: 95
[3]; 125 g ai/ha
  Plant response rating, Crabgrass, Large: 95
[3]; 250 g ai/ha
  Plant response rating, Crabgrass, Large: 95
[4]; [16]
  Plant response rating (scale of 0 to 100), Nutsedge, Yellow: 0
[4]; 62 g ai/ha
  Plant response rating, Nutsedge, Yellow: 0
[4]; 125 g ai/ha
  Plant response rating, Nutsedge, Yellow: 0
[4]; 250 g ai/ha
  Plant response rating, Nutsedge, Yellow: 0
Corn (Zea mays); [16]
  Plant response rating (scale of 0 to 100), Corn: 0
Corn (Zea mays); 62 g ai/ha
  Plant response rating, Corn: 10
Corn (Zea mays); 125 g ai/ha
  Plant response rating, Corn: 55
Corn (Zea mays); 250 g ai/ha
  Plant response rating, Corn: 85
[5]; [16]
  Plant response rating (scale of 0 to 100), Waterhemp: 0
[5]; 62 g ai/ha
  Plant response rating, Waterhemp: 10
[5]; 125 g ai/ha
  Plant response rating, Waterhemp: 40
[5]; 250 g ai/ha
  Plant response rating, Waterhemp: 65
[6]; [16]
  Plant response rating (scale of 0 to 100), Barnyardgrass: 80
[6]; 62 g ai/ha
  Plant response rating, Barnyardgrass: 90
[6]; 125 g ai/ha
  Plant response rating, Barnyardgrass: 90
[6]; 250 g ai/ha
  Plant response rating, Barnyardgrass: 95
[7]; [16]
  Plant response rating (scale of 0 to 100), Wheat: 0
[7]; 62 g ai/ha
  Plant response rating, Wheat: 0
[7]; 125 g ai/ha
  Plant response rating, Wheat: 5
[7]; 250 g ai/ha
  Plant response rating, Wheat: 35
Soybean (Glycine max); [16]
  Plant response rating (scale of 0 to 100), Soybean: 50
Soybean (Glycine max); 62 g ai/ha
  Plant response rating, Soybean: 0
Soybean (Glycine max); 125 g ai/ha
  Plant response rating, Soybean: 40
Soybean (Glycine max); 250 g ai/ha
  Plant response rating, Soybean: 0
[8]; [16]
  Plant response rating (scale of 0 to 100), Morningglory: 0
[8]; 62 g ai/ha
  Plant response rating, Morningglory: 10
[8]; 125 g ai/ha
  Plant response rating, Morningglory: 20
[8]; 250 g ai/ha
  Plant response rating, Morningglory: 45
[9]; [16]
  Plant response rating (scale of 0 to 100), Ragweed: 0
[9]; 62 g ai/ha
  Plant response rating, Ragweed: 10
[9]; 125 g ai/ha
  Plant response rating, Ragweed: 35
[9]; 250 g ai/ha
  Plant response rating, Ragweed: 45
[10]; [16]
  Plant response rating (scale of 0 to 100), Oilseed Rape: 0
[10]; 62 g ai/ha
  Plant response rating, Oilseed Rape: 50
[10]; 125 g ai/ha
  Plant response rating, Oilseed Rape: 85
[10]; 250 g ai/ha
  Plant response rating, Oilseed Rape: 85
[11]; [16]
  Plant response rating (scale of 0 to 100), Blackgrass: 0
[11]; 62 g ai/ha
  Plant response rating, Blackgrass: 5
[11]; 125 g ai/ha
  Plant response rating, Blackgrass: 10
[11]; 250 g ai/ha
  Plant response rating, Blackgrass: 10
[12]; [16]
  Plant response rating (scale of 0 to 100), Velvetleaf: 0
[12]; 62 g ai/ha
  Plant response rating, Velvetleaf: 0
[12]; 125 g ai/ha
  Plant response rating, Velvetleaf: 5
[12]; 250 g ai/ha
  Plant response rating, Velvetleaf: 5
[13]; [16]
  Plant response rating (scale of 0 to 100), Foxtail, Giant: 90
[13]; 62 g ai/ha
  Plant response rating, Foxtail, Giant: 90
[13]; 125 g ai/ha
  Plant response rating, Foxtail, Giant: 90
[13]; 250 g ai/ha
  Plant response rating, Foxtail, Giant: 95
[14]; [16]
  Plant response rating (scale of 0 to 100), Galium: 85
[14]; 62 g ai/ha
  Plant response rating, Galium: 0
[14]; 125 g ai/ha
  Plant response rating, Galium: 0
[14]; 250 g ai/ha
  Plant response rating, Galium: 85
[15]; [16]
  Plant response rating (scale of 0 to 100), Lambsquarters: 25
[15]; 62 g ai/ha
  Plant response rating, Lambsquarters: 35
[15]; 125 g ai/ha
  Plant response rating, Lambsquarters: 40
[15]; 250 g ai/ha
  Plant response rating, Lambsquarters: 50
